What all share (format): functional
For experiment [1], the target named is T1, Sentrin-specific protease 7 (Homo sapiens, UniProt Q9BQF6).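 Further: Luminescence-based dose-response confirmation of ultra-high-throughput screening hits, measuring inhibition of SENP7.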
T1 sequence (Q9BQF6 whole entry): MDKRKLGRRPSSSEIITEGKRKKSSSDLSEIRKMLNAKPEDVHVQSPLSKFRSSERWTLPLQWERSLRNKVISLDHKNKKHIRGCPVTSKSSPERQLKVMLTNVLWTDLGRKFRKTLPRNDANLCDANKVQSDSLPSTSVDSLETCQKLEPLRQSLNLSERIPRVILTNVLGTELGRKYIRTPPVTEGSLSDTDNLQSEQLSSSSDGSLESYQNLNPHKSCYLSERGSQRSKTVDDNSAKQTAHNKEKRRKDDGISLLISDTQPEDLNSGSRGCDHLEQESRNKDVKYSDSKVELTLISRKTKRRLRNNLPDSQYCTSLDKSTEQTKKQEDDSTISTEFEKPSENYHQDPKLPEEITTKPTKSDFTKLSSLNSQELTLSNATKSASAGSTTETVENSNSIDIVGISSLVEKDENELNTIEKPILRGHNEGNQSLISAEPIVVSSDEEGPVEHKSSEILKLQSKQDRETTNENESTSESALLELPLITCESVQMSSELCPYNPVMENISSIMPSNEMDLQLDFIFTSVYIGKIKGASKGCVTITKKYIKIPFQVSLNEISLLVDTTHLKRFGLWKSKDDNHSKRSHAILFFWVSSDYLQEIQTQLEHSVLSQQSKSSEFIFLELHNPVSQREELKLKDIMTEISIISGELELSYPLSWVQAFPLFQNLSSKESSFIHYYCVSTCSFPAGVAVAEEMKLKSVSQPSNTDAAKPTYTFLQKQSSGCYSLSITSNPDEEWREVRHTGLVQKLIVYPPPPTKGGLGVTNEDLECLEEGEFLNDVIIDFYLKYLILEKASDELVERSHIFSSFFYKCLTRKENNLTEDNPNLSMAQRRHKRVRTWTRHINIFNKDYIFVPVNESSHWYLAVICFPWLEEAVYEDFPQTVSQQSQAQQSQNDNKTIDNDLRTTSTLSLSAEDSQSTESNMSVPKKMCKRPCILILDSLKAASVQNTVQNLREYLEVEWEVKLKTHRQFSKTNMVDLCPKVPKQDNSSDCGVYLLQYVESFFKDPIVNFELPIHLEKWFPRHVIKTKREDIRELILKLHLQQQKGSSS

For experiment [2], the target named is T2, Sentrin-specific protease 6 (Homo sapiens, UniProt Q9GZR1).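 Further: Luminescence-based dose-response confirmatory assay of SENP6 inhibition, following up an ultra-high-throughput screen.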
T2 sequence (Q9GZR1 whole entry): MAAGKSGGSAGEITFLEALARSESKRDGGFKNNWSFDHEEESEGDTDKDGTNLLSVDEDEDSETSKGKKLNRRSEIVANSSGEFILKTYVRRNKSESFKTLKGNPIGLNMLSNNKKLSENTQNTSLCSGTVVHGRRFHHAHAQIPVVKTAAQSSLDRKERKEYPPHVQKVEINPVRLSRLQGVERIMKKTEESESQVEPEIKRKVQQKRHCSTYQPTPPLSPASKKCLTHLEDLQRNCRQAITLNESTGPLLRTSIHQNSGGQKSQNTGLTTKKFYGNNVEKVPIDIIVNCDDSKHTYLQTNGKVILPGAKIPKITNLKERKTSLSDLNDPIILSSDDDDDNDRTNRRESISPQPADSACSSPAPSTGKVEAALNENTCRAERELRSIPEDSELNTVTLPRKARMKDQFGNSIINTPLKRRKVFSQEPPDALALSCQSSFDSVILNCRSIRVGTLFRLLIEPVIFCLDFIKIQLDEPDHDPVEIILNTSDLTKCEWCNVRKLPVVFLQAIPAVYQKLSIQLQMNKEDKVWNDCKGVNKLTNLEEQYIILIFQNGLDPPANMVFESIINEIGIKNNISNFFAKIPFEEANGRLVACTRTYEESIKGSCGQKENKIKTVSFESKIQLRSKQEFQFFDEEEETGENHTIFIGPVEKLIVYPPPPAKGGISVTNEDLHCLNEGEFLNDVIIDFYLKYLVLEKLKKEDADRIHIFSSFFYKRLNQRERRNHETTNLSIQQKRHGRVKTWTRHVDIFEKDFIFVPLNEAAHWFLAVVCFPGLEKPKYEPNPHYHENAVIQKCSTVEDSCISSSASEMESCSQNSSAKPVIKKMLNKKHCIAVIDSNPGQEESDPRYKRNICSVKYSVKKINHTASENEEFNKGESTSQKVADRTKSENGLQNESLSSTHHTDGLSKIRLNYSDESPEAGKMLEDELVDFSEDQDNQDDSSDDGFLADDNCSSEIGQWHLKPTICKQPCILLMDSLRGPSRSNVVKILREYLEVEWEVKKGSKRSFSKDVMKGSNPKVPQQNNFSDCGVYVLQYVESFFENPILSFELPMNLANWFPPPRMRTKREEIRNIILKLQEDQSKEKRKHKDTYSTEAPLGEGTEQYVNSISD

Experiment [3] has as its target Tyrosine-protein kinase ABL1 (Homo sapiens, UniProt P00519).
Experiment [4] deals with Macrophage-stimulating protein receptor (Homo sapiens, UniProt Q04912). Kind of experiment: Navigating the Kinome. Panel member name: MST1R.
Sequence of Macrophage-stimulating protein receptor (Q04912 25-304 limits assumed): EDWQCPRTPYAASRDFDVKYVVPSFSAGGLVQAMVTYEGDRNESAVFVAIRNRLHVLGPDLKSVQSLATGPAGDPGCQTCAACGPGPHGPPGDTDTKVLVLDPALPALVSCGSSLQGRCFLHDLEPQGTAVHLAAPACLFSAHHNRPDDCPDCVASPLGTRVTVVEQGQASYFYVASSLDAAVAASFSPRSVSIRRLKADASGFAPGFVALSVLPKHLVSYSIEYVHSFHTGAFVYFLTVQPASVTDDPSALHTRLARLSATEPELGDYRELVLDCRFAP
Sequence of Macrophage-stimulating protein receptor (Q04912 310-1400 limits assumed): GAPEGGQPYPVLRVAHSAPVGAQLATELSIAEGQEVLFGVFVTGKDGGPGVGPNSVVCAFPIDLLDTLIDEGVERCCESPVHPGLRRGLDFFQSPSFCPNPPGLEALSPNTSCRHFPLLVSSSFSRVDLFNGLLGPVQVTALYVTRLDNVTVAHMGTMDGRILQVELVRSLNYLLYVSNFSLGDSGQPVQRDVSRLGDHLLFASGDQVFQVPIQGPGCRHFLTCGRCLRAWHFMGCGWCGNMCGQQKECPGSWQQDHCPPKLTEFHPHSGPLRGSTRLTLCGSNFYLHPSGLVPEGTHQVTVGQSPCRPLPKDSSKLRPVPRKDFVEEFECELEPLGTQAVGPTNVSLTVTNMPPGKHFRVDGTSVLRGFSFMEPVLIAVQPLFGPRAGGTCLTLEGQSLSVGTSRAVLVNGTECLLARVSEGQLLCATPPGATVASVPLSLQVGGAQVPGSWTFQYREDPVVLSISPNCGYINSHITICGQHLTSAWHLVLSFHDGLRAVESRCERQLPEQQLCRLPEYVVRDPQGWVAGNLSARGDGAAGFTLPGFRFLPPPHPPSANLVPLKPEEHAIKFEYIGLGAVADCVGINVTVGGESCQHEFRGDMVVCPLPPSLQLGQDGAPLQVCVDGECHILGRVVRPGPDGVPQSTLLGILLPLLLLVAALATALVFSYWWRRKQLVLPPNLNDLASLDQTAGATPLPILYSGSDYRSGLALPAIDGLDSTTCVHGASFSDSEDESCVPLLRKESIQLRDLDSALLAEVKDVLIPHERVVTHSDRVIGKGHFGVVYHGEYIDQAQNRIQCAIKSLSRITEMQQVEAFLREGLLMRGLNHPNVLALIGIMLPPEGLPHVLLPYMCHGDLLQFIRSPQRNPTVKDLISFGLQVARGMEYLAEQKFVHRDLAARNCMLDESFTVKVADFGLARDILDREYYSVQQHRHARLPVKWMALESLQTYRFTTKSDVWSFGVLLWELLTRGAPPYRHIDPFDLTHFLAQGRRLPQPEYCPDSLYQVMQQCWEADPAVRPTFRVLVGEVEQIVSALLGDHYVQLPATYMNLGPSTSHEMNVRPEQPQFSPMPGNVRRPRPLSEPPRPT
In experiment [5] the target is T3, Inhibitor of nuclear factor kappa-B kinase subunit epsilon (Homo sapiens, UniProt Q14164).
T3 sequence (Q14164 whole entry): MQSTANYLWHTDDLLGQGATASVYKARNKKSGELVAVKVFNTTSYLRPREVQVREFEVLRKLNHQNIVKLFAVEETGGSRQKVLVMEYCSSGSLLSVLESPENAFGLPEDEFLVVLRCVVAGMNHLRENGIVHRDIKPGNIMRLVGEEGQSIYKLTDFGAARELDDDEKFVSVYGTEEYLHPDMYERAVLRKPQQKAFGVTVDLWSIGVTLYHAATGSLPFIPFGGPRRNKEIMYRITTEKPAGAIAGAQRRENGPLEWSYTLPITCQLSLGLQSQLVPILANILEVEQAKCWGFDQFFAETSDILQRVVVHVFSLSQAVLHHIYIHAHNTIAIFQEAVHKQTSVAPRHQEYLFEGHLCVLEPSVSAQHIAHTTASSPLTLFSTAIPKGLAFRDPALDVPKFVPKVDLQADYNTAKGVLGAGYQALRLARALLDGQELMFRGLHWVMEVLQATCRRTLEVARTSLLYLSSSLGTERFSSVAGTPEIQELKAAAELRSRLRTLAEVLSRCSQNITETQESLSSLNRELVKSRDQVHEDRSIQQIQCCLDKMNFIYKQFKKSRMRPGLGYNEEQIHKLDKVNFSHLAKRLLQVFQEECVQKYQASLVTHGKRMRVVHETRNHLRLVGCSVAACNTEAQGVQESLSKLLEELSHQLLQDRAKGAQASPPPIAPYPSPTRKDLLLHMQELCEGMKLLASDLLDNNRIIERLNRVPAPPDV
Kind of experiment: Navigating the Kinome. Panel member name: IKBKE.

Experiment [6] deals with Glycogen synthase kinase-3 alpha (Homo sapiens, UniProt P49840).
Sequence of Glycogen synthase kinase-3 alpha (P49840 whole entry): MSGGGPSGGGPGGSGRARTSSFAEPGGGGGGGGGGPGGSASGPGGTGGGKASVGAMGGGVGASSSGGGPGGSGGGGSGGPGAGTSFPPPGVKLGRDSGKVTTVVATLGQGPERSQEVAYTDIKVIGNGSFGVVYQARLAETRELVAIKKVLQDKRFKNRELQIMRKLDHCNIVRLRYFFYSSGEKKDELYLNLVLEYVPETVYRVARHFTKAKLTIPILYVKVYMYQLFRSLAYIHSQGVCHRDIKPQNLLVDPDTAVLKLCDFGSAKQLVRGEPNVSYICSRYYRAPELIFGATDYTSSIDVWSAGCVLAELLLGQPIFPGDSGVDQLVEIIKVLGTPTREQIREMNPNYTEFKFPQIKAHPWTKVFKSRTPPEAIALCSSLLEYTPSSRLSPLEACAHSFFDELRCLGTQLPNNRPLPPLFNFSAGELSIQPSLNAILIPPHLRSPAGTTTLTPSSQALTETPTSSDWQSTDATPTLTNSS
Experiment [7] addresses Death-associated protein kinase 3 (Homo sapiens, UniProt O43293).

The source made the active and inactive calls.

The source of these data is ChEMBL document CHEMBL1201862, “PubChem BioAssay data set” (2004).

In general, IC50 refers to the concentration at which inhibition is half-maximal. A word on the Ki: it is the dissociation constant of the complex between target and ligand, obtained from inhibition or displacement.

Sequence of Tyrosine-protein kinase ABL1 (P00519 whole entry): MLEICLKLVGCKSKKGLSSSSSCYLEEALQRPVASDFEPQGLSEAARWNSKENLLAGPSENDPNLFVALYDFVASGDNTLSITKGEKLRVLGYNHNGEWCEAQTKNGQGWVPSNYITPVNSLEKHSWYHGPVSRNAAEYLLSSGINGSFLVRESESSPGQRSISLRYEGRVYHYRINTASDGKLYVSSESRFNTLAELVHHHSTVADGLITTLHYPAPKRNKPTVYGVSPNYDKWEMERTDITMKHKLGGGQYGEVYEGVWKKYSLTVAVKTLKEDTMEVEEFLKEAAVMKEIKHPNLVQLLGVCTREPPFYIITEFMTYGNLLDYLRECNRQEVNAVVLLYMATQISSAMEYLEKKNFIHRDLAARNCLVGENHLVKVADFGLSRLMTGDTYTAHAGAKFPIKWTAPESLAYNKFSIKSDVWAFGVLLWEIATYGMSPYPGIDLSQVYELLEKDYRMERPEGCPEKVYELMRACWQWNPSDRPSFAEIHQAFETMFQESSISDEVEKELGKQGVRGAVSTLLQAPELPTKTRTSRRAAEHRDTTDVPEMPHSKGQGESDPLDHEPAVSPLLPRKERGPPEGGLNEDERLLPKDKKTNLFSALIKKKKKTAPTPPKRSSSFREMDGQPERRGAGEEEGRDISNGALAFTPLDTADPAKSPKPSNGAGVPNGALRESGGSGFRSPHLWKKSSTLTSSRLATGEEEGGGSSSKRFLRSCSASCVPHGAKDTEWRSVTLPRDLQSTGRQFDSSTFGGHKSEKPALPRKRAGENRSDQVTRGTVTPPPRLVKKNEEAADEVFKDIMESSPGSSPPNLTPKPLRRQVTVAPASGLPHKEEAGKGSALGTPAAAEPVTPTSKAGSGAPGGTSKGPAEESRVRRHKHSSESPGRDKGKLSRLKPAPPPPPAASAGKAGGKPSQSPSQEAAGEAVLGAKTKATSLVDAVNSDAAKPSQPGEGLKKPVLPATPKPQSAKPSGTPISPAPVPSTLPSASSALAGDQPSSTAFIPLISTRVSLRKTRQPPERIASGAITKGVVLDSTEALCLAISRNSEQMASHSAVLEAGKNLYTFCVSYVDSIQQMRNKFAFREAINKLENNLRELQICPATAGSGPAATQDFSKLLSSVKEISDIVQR
Sequence of Death-associated protein kinase 3 (O43293 whole entry): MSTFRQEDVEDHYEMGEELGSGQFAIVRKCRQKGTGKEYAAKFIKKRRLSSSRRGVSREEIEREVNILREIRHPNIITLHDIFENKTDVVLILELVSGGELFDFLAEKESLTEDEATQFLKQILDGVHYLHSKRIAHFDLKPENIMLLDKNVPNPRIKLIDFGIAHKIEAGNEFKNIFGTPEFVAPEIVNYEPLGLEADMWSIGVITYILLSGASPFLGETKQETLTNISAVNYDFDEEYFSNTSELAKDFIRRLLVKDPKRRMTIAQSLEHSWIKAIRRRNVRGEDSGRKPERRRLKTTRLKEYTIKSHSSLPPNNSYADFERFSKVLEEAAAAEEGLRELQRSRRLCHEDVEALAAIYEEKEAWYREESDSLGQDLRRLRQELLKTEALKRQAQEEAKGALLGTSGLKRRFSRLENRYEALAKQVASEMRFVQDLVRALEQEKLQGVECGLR

Take `O=C(NC1=C(Nc2ccc(F)cc2)C(=O)c2ccccc2C1=O)c1ccc(Cl)cc1`: the IC50 in experiment [1] was 24.3 µM (active); in experiment [2] it was 8.56 µM (active).

Consider `Oc1nc(Nc2ccc(F)cc2)cc2ccccc12`, for which the IC50 in experiment [1] is 7.05 µM (active); in experiment [2], 2.99 µM (active).

Consider `CN(C)c1cc(N/N=C\c2ccccc2)nc(N(C)C)n1`, for which the figures for the IC50 in experiment [1] and in experiment [2] were 77.6 µM (active) and 6 µM (active), respectively.

In the case of `O=C1Nc2cc(-c3ccc(O)cc3)ccc2C1=Cc1ccc[nH]1`, the Ki in experiment [3] is 0.0501 µM (active); in experiment [4], 0.0631 µM (active); in experiment [5], > 3.16 µM (inactive); in experiment [6], 0.631 µM (active); in experiment [7], 0.00794 µM (active).

Turning to `NC(COc1cncc(-c2ccc3c(c2)C(=Cc2ccc[nH]2)C(=O)N3)c1)Cc1ccccc1` (stereo unspecified), the Ki in experiment [3] was 0.0631 µM (active); in experiment [4] it was 0.00158 µM (active); in experiment [5], 0.02 µM (active); in experiment [6] it was 0.00126 µM (active); in experiment [7] it was 0.00501 µM (active).

With `O=C1Cc2cc(-c3ccccc3)cnc2N1`, the Ki is 79.4 µM (active) in experiment [3]; 79.4 µM (active) in experiment [4]; 100 µM (active) in experiment [5]; 15.8 µM (active) in experiment [6]; 39.8 µM (active) in experiment [7].
